The text below walks through data of ChEMBL document CHEMBL5331062, “2,6-Difluorobenzamide derivatives as store-operated calcium channel (SOC) inhibitors” (Eur J Med Chem, 2022).

Series [1] deals with Caco-2. Nature of the series: Inhibition of SOC activity in human Caco-2 cells at 1 uM induced by thapsigargin for 5 mins followed by Ca2+ […] addition and measured after 5 mins after compound addition by Ca2+ imaging method. It counts as cell-based.
The test system of series [2] is Caco-2. The experiment in a line: Antiproliferative activity against human Caco-2 cells assessed as reduction in cell growth incubated for 24 hrs by WST-8 cell proliferation assay. It counts as functional, cell-based. A general note: Tetrazolium dyes change colour on reduction, which living cells bring about.
The test system of series [3] is Caco-2. Nature of the series: Inhibition of SOC activity in human Caco-2 cells co-transfected with STIM1-YFP/Orai1-mCherry assessed as reduction in thapsigargin induced STIM1-Orai1 interaction at 1 uM preincubated with compound for 30 mins followed by thapsigargin induction by time-lapse TIRF-FRET assay. It counts as cell-based.
The nature of series [4]: Half life in Sprague-Dawley rat at 2 mg/kg, iv measured upto 24 hrs by LC-MS/MS analysis. The series is classed as ADME, organism-based. The conditions noted are these: in vivo.
Series [5] in a line: AUC (0 to infinity) in Sprague-Dawley rat at 2 mg/kg, iv measured upto 24 hrs by LC-MS/MS analysis. The note with it: in vivo. Also on record: dose 2 mg/kg, time < 24 hrs, route iv. The series is classed as ADME, organism-based.
Series [6] in a line: AUC (0 to infinity) in Sprague-Dawley rat at 20 mg/kg, po measured upto 24 hrs by LC-MS/MS analysis. The series is classed as ADME, organism-based. Also on record: dose 20 mg/kg, time < 24 hrs, route po. The note with it: in vivo.
The nature of series [7]: Oral bioavailability in Sprague-Dawley rat at 20 mg/kg measured upto 24 hrs by LC-MS/MS analysis. The note with it: in vivo. The series is classed as ADME, organism-based.
The nature of series [8]: Tmax in Sprague-Dawley rat at 20 mg/kg, po measured upto 24 hrs by LC-MS/MS analysis. It counts as ADME, organism-based. The note with it: in vivo.
Series [9] can be described thus: Half life in Sprague-Dawley rat at 20 mg/kg, po measured upto 24 hrs by LC-MS/MS analysis. It counts as ADME, organism-based. The note with it: in vivo.
Series [10] deals with Caco-2. Nature of the series: Inhibition of SOC activity in human Caco-2 cells co-transfected with STIM1-YFP/Orai1-mCherry assessed as reduction in thapsigargin induced STIM1-Orai1 interaction at 1 uM preincubated with thapsigargin for 2 mins followed by compound treatment by calcium influx assay. It counts as cell-based.
The nature of series [11]: Cmax in Sprague-Dawley rat at 20 mg/kg, po measured upto 24 hrs by LC-MS/MS analysis. It counts as ADME, organism-based. Also on record: dose 20 mg/kg, time < 24 hrs, route po. The conditions noted are these: in vivo.
Series [12] is described as follows: Volume of distribution at steady state in Sprague-Dawley rat at 2 mg/kg, iv measured upto 24 hrs by LC-MS/MS analysis. It counts as ADME, organism-based. The note with it: in vivo, read-out: Vdss.
Series [13] can be described thus: Clearance in Sprague-Dawley rat at 2 mg/kg, iv measured upto 24 hrs by LC-MS/MS analysis. The series is classed as ADME, organism-based. The note with it: in vivo.
Series [14] concerns Caco-2. The experiment in a line: Inhibition of cell migration in human Caco-2 cells assessed as reduction in cell motility at 1 uM measured after 24 hrs by wound healing assay. The series is classed as functional, cell-based.
Series [15] concerns Caco-2. The experiment in a line: Inhibition of SOC activity in human Caco-2 cells assessed as stabilization of STIM1-EB1 complex by immunoprecipitation-Western blot analysis. The series is classed as cell-based. For orientation: Immunoblotting shows a protein as a band on a membrane.
Series [16] has as its system Caco-2. The experiment in a line: Inhibition of cell invasion in human Caco-2 cells assessed as suppression of cell growth at 1 uM measured after 48 hrs by crystal violet staining based analysis. It counts as functional.
Series [17] relates to Caco-2. The experiment in a line: Inhibition of cell migration in human Caco-2 cells assessed as suppression of cell growth at 1 uM measured after 48 hrs by transwell migration assay. The series is classed as functional, cell-based.
The test system of series [18] is Caco-2. The experiment in a line: Inhibition of SOC activity in human Caco-2 cells co-transfected with STIM1-YFP/Orai1-mCherry assessed as reduction in thapsigargin induced STIM1-Orai1 interaction at 1 uM preincubated with thapsigargin for 2 mins followed by compound treatment by time-lapse TIRF-FRET assay. It counts as cell-based.

SMILES strings stand for the structures. Calls of active or inactive are those of the source. No cut-off for these calls is given here.

For `O=C(Nc1ccc(NC(=O)c2c(F)cccc2F)cc1)c1cncc(F)c1`, the inhibition entry in the series with Caco-2 [1] was “Active”.
By half-life is commonly meant the time in which the quantity being followed falls by half. What is called AUC(0-inf) is the area under the concentration-time curve extrapolated to infinity. A high value points to more exposure. For orientation: bioavailability means the share of a dose that reaches the circulation, judged against a reference dose that is usually intravenous. Read a high bioavailability as much systemic uptake. What is called Tmax is the time from dosing to the highest level. Usually Cmax stands for the maximum level reached in the sampled fluid or tissue. For orientation: clearance means the rate of elimination divided by the concentration. The low end stands for inefficient removal, the high end for efficient removal. As to `COc1ccc(OC)c(-c2ccc(NC(=O)c3ccncc3F)cc2)c1`, the outcome with Caco-2 [2] was inactive. Also, the inhibition result with Caco-2 [3] and in the series on Caco-2 [10] was “Active” throughout. Further, the half-life in series [4] is 5.2 h; in series [9], 2.5 h. In addition, the AUC(0-inf) in series [5] was found to be 0.969 µg·h/mL; in [6], 2 µg·h/mL. In [7], this compound gave a bioavailability of 20.6%. Moreover, the Tmax in series [8] was 3.3 h. In series [11], this compound gave a Cmax of 0.257 µg/mL. Also, the Vd in series [12] amounted to 2.4 L/kg. The clearance in series [13] amounted to 2.06 L/h/kg.
Consider `O=C(Nc1ccc(-c2ccco2)cn1)c1c(F)cccc1F`, for which the inhibition result with Caco-2 [1] and in the series on Caco-2 [14] was “Active” throughout.
Turning to `O=C(Nc1ccc(-c2ccc(F)cc2)cn1)c1c(F)cccc1F`, the result in the series on Caco-2 [2] was inactive. Also, the inhibition entry with Caco-2 [15], with Caco-2 [3], in the series on Caco-2 [1], in the series on Caco-2 [14], with Caco-2 [10] and in the series on Caco-2 [16] was “Active” throughout. In addition, the inhibition entry in the series with Caco-2 [17] and in the series with Caco-2 [18] was “Active” each time. Further, the half-life was 24 h in series [4] and 16 h in [9]. The AUC(0-inf) in series [5] came out at 15.9 µg·h/mL; in [6], 54 µg·h/mL. The compound further had a bioavailability in series [7] of 34%. For the same compound, the Tmax in series [8] came to 6 h. The compound further registered a Cmax in [11] of 2.16 µg/mL. Besides, the Vd in [12] amounted to 3.9 L/kg. For the same compound, the clearance in series [13] came to 0.144 L/h/kg.
Turning to `COc1ccc(-c2ccc(NC(=O)c3c(F)cccc3F)nc2)cc1OC`, the inhibition entry in the series with Caco-2 [1] is “Active”.
As to `O=C(Nc1ccc(-c2cccc(Cl)c2)cn1)c1c(F)cccc1F`, the inhibition result with Caco-2 [14] is “Active”.
